We go through 67 compounds from US12502380B2, “MrgprX2 antagonists for the treatment of inflammatory disorders” (Dermira, Inc., priority 2019, dated 2025).

The assay deals with T1, Human MrgprX2 (Homo sapiens, UniProt Q96LB1).
T1 construct: expressed in transfected cells
T1 sequence (Q96LB1 1-330): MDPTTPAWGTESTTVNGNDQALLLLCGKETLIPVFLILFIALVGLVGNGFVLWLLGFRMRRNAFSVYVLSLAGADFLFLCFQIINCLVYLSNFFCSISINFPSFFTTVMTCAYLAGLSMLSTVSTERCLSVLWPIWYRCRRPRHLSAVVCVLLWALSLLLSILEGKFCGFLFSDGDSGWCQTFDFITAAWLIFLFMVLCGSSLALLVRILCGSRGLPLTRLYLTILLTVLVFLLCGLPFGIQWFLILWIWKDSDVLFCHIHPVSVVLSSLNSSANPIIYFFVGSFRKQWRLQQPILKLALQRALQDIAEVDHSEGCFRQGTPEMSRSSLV
The assay can be described thus: Human MrgprX2 antagonist FLIPR intracellular calcium mobilization assay. In kind it is cell-based. The settings on record: antagonist activity, recombinant hMrgpMRGPRX2 expressing cells, read-out: Human MrgprX2 Antagonist pIC50 (converted). The gist of the method: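 Antagonist activity was read as inhibition of intracellular calcium mobilization (FLIPR) in recombinant cells expressing human MrgprX2. Potency was also checked in LAD-2 human mast cells with endogenous receptor, and orthologue activity in cells expressing mouse MrgprB2, mouse MrgprA1, and gerbil, Chinese hamster and cynomolgus orthologues.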
For the compound `C[C@H](O)CN(C)C(=O)Nc1ncc(Cc2ccccc2F)s1` [Compound E102], the IC50 was 251 nM.

As for `O=C(Nc1ncc(Cc2cccc(F)c2)s1)N1CCOC[C@H]1CO` [Compound E123], the IC50 was 7940 nM.

Consider `CC(C)C(=O)Nc1ncc(Oc2cccnc2)s1` [Compound E071], for which the IC50 was 6310 nM.

Consider `C[C@@H](O)CN(C)C(=O)Nc1ncc(Oc2ccccc2)s1` [Compound E148], for which the IC50 is 15.8 nM.

For the compound `CCN(C[C@H](C)O)C(=O)Nc1ncc(Oc2ccc(C#N)cc2)s1` [Compound E147, 3-[5-(4-cyanophenoxy)thiazol-2-yl]-1-ethyl-1-[(2S)-2-hydroxypropyl]urea], the IC50 is 3.16 nM.

As to `Cc1cccc(Cc2cnc(NC(=O)C3(C)CCOCC3)s2)c1` [Compound E024], the IC50 is 398 nM.

With `CC(C)(C)OC(=O)N1CCC[C@]1(C)C(=O)Nc1ncc(Cc2cccc(F)c2)s1` [Compound E037, tert-butyl (2R)-2-[[5-[(3-fluorophenyl)methyl]thiazol-2-yl]carbamoyl]-2-methyl-pyrrolidine-1-carboxylate], the IC50 is 251 nM.

In the case of `CCN(C[C@H](C)O)C(=O)Nc1ncc(Oc2ccccc2C#N)s1` [Compound E175], the IC50 is 316 nM.

As for `O=C(Nc1ncc(Cc2cccc(F)c2)s1)C1(CO)CC1` [Compound E029], the IC50 was 631 nM.

Consider `CCN(C[C@H](C)O)C(=O)Nc1ncc(Oc2cncc(F)c2)s1` [Compound E158], for which the IC50 is 1.26 nM.

As for `CCN(CC(C)O)C(=O)Nc1ncc(Cc2cccc(F)c2)s1` (stereo not shown) [Compound E110], the IC50 is 0.501 nM.

Take `N#CC1(C(=O)Nc2ncc(Cc3ccccc3F)s2)CCOCC1` [Compound E028]: the IC50 is 6310 nM.

Consider `CCN(C[C@H](C)O)C(=O)Nc1ncc(Oc2cncc(C#N)c2)s1` [Compound E173], for which the IC50 was 31.6 nM.

Turning to `CC(=O)N1CCC[C@@H]1C(=O)Nc1ncc(Cc2cccc(F)c2)s1` [Compound E055, (2R)-1-acetyl-N-[5-[(3-fluorophenyl)methyl]thiazol-2-yl]pyrrolidine-2-carboxamide], the IC50 is 3980 nM.

With `CC1(C(=O)Nc2ncc(Cc3cc(F)cc(F)c3)s2)CCOCC1` [Compound E044], the IC50 is 15.8 nM.

Turning to `CCN(C[C@H](C)O)C(=O)Nc1ncc(Oc2cccc(C#N)c2F)s1` [Compound E197], the IC50 is 50.1 nM.

For the compound `CCN(C[C@H](C)O)C(=O)Nc1ncc(Oc2cc(C)cc(C#N)c2)s1` [Compound E206], the IC50 is 6.31 nM.

With `CCN(C[C@H](C)O)C(=O)Nc1ncc(Oc2ccc(C(=O)OC)cc2)s1` [Compound E214], the IC50 is 3160 nM.

In the case of `CCN(C[C@H](C)O)C(=O)Nc1ncc(Oc2cccc(F)c2C#N)s1` [Compound E199], the IC50 was 251 nM.

For `CN(CC(C)(C)O)C(=O)Nc1ncc(Cc2cccc(F)c2)s1` [Compound E108], the IC50 was 1.58 nM.

For the compound `CCN(C[C@H](C)O)C(=O)Nc1ncc(Oc2ccc(F)cc2C#N)s1` [Compound E191], the IC50 is 794 nM.

On to `C[C@H](O)CN(C)C(=O)Nc1ncc(Oc2cncc(F)c2)s1` [Compound E176], for which the IC50 was 50.1 nM.

Take `CC1(C(=O)Nc2ncc(Oc3cccc(F)c3)s2)CCOCC1` [Compound E070, N-[5-(3-fluorophenoxy)thiazol-2-yl]-4-methyl-tetrahydropyran-4-carboxamide]: the IC50 is 5.01 nM.

In the case of `CC1(C(=O)Nc2ncc(Cc3cccc(Cl)c3)s2)COC1` [Compound E036], the IC50 is 316 nM.

On to `CCN(C[C@H](C)O)C(=O)Nc1nc2ccccc2s1` [Compound E129], for which the IC50 was 1000 nM.

`C[C@]1(C(=O)Nc2ncc(Cc3cccc(F)c3)s2)CCCN1` [Compound E061, (2R)—N-[5-[(3-fluorophenyl)methyl]thiazol-2-yl]-2-methyl-pyrrolidine-2-carboxamide]: the IC50 was 2000 nM.

On to `CCN(C[C@H](C)O)C(=O)Nc1ncc(Cc2cc(F)ccc2OC)s1` [Compound E139], for which the IC50 is 39.8 nM.

In the case of `CC1(C(=O)Nc2ncc(Oc3cccc(F)c3)s2)CCOC1` (stereo not shown) [Compound E078, N-[5-(3-fluorophenoxy)thiazol-2-yl]-3-methyl-tetrahydrofuran-3-carboxamide], the IC50 was 2.51 nM.

For the compound `CCN(C[C@H](C)O)C(=O)Nc1ncc(Oc2cccnc2)s1` [Compound E166], the IC50 was 100 nM.

Regarding `CCN(C[C@H](C)O)C(=O)Nc1ncc(Oc2cccc(C#N)c2)s1` [Compound E162], the IC50 was 1.58 nM.

Consider `CC(C)C(=O)Nc1csc(C(=O)NCc2ccccc2)c1` [Compound E223, N-benzyl-4-(2-methylpropanoylamino)thiophene-2-carboxamide], for which the IC50 is 7940 nM.

As to `O=C(Nc1ncc(Cc2cccc(F)c2)s1)N1CC(F)(F)C[C@@H]1CO` [Compound E127], the IC50 is 39.8 nM.

With `CC(C)C(=O)Nc1ncc(Oc2ccc(F)cc2)s1` [Compound E074], the IC50 is 10 nM.

Take `CC1(C(=O)Nc2ncc(Oc3ccccc3)s2)CCOCC1` [Compound E020]: the IC50 was 126 nM.

`COc1ccc(F)cc1Cc1cnc(NC(=O)N(C)C[C@H](C)O)s1` [Compound E143]: the IC50 was 398 nM.

For the compound `CN1CCC[C@@H]1C(=O)Nc1ncc(Cc2cccc(F)c2)s1` [Compound E054, (2R)—N-[5-[(3-fluorophenyl)methyl]thiazol-2-yl]-1-methyl-pyrrolidine-2-carboxamide], the IC50 was 39.8 nM.

For the compound `CCN(C[C@H](C)O)C(=O)Nc1ncc(Oc2ccc(C#N)nc2)s1` [Compound E212], the IC50 was 158 nM.

Turning to `CC(O)CN(CC(F)(F)F)C(=O)Nc1ncc(Cc2cccc(F)c2)s1` (stereo not shown) [Compound E119], the IC50 was 200 nM.

Regarding `CCN(C[C@H](C)O)C(=O)Nc1ncc(Oc2cncnc2)s1` [Compound E201], the IC50 is 2510 nM.

`O=C(Nc1ncc(Cc2cccc(F)c2)s1)N1CCC1CO` (stereo not shown) [Compound E126]: the IC50 was 631 nM.

Regarding `CC[C@H](C(=O)Nc1ncc(Cc2cccc(F)c2)s1)N(C)S(N)(=O)=O` [Compound E069], the IC50 is 1580 nM.

Take `CCN(C[C@H](C)O)C(=O)Nc1ncc(Oc2ccc(C#N)cc2F)s1` [Compound E190]: the IC50 is 6.31 nM.

As for `O=C(Nc1ncc(Cc2cccc(F)c2)s1)C1CCCC1O` (stereo not shown) [Compound E038], the IC50 was 1580 nM.

In the case of `CC1(C(=O)Nc2ncc(Cc3cccc(F)c3)s2)CCOC1` (stereo not shown) [Compound E015, N-[5-[(3-fluorophenyl)methyl]thiazol-2-yl]-3-methyl-tetrahydrofuran-3-carboxamide], the IC50 is 126 nM.

For the compound `C[C@H](O)CN(C)C(=O)Nc1ncc(Cc2ccc(F)cc2F)s1` [Compound E141], the IC50 is 50.1 nM.

Consider `O=C(CN1CCCCC1)Nc1ncc(Cc2ccccc2F)s1` [Compound E013], for which the IC50 was 398 nM.

For `CC1(C(=O)Nc2ncc(Oc3cncc(F)c3)s2)CCOCC1` [Compound E080], the IC50 was 501 nM.

As to `C[C@H](O)CN(C)C(=O)Nc1ncc(Oc2ccc(F)c(C#N)c2)s1` [Compound E165], the IC50 is 20 nM.

As for `CN(CC(O)CO)C(=O)Nc1ncc(Cc2cccc(F)c2)s1` (stereo not shown) [Compound E106], the IC50 was 3160 nM.

For `CCN(C[C@H](C)O)C(=O)Nc1ncc(Cc2cccc(F)c2OC)s1` [Compound E140], the IC50 is 501 nM.

`CCN(C[C@H](C)O)C(=O)Nc1ncc(Oc2ccc(C)nc2)s1` [Compound E157]: the IC50 was 126 nM.

Regarding `CCN(C[C@H](C)O)C(=O)Nc1ncc(Oc2ccc(C(F)(F)F)cc2)s1` [Compound E161], the IC50 is 316 nM.

As for `O=C(Nc1ncc(Cc2cccc(F)c2)s1)N1CCC[C@@H]1CO` [Compound E121], the IC50 is 39.8 nM.

With `C[C@H](O)CN(C)C(=O)Nc1ncc(Cc2ccc(C#N)cc2)s1` [Compound E145], the IC50 was 3160 nM.

Consider `CC(C)NC(=O)c1ncc(Cc2cccc(F)c2)s1` [Compound E217, 5-[(3-fluorophenyl)methyl]-N-isopropyl-thiazole-2-carboxamide], for which the IC50 is 2000 nM.

Take `CCN(C[C@H](C)O)C(=O)Nc1ncc(Oc2ccc(F)c(C#N)c2)s1` [Compound E184]: the IC50 was 5.01 nM.

As to `CC1(C(=O)Nc2ncc(CC3CCCC3)s2)CCOCC1` [Compound E097], the IC50 was 2000 nM.

For the compound `CCN(C[C@@H](C)O)C(=O)Nc1ncc(Oc2ccc(F)cc2)s1` [Compound E204], the IC50 was 3.16 nM.

Take `C[C@H](O)CN(C)C(=O)Nc1ncc(Oc2ccc(C#N)cc2)s1` [Compound E156]: the IC50 was 39.8 nM.

`CN(CCO)C(=O)Nc1ncc(Cc2cccc(F)c2)s1` [Compound E132]: the IC50 is 2510 nM.

As for `CC1(C(=O)Nc2ncc(Cc3cccc(Cl)c3)s2)CCOCC1` [Compound E023], the IC50 was 126 nM.

Take `CC1(C(=O)Nc2ncc(Oc3cccc(Cl)c3)s2)CCOCC1` [Compound E079]: the IC50 is 3.98 nM.

With `CCN(C[C@H](C)O)C(=O)Nc1ncc(Oc2cncc(C(F)(F)F)c2)s1` [Compound E180], the IC50 was 251 nM.

With `C[C@H](O)CN(C)C(=O)Nc1ncc(Oc2ccccc2)s1` [Compound E149], the IC50 is 2 nM.

As to `CC(C)CN(C)C(=O)Nc1ncc(Cc2cccc(F)c2)s1` [Compound E125], the IC50 was 7.94 nM.

Turning to `O=C(Nc1ncc(Cc2cccc(F)c2)s1)N1CC[C@@H](CO)C1` [Compound E113], the IC50 was 794 nM.

For `C[C@H](O)CN(C)C(=O)Nc1ncc(Oc2ccc(F)cc2C#N)s1` [Compound E192], the IC50 was 3160 nM.
